Tested on: subjects with Acute Migraines
Assay: Study 301 (BHV3000-301, NCT03235479): Phase 3 double-blind placebo-controlled trial, rimegepant 75 mg tablet, acute treatment of migraine
Assay type: in vivo, human
Settings: for Freedom from MBS at 2 hours / Pain Freedom (pain-free) at 2 hours: N = 543
Experimental: Clinical Trial—BHV3000-301: Phase 3: Double-Blind, Randomized, Placebo-Controlled, Safety and Efficacy Trial of BHV-3000 (Rimegepant) for the Acute Treatment of Migraine (ClinicalTrials.gov Identifier: NCT03235479). A phase 3 clinical study was conducted with 1490 participants, as follows. The purpose of this study was to compare the efficacy of BHV-3000 (rimegepant) versus placebo in subjects with Acute Migraines Study Design • Study Type: Interventional (Clinical Trial) • Actual Enrollment: 1490 participants • Allocation: Randomized • Intervention Model: Parallel Assignment • Intervention Model Description: Double-blind to Sponsor, Investigator and Subject Randomized Controlled Trial • Masking: Triple (Participant, Care Provider, Investigator) • Masking Description: Double-blind to Sponsor, Investigator and Subject • Primary Purpose: Treatment • Official Title: BHV3000-301: Phase 3: Double-Blind, Randomized, Placebo-Controlled, Safety and Efficacy Trial of BHV-3000 (Rimegepant) for the Acute Treatment of Migraine Arms and Interventions Outcome Measures Primary Outcome Measures: • 1. Pain freedom of rimegepant (75 mg tablet) compared with placebo in the acute treatment of migraine will be measured using the number of evaluable subjects that report no pain at 2 hours post-dose. [Time Frame: Two hours post dose] • Pain will be measured on a 4 point Likert scale (0=none, 1=mild, 2=moderate, 3=severe) • 2. Freedom from the most bothersome symptom (MBS) of rimegepant (75 mg tablet) compared with placebo will be measured using the number of evaluable subjects that report the absence of their MBS at 2 hours post-dose. [Time Frame: Two hours post dose] • The MBS (nausea, phonophobia or photophobia) will measured using a binary scale (0=absent, 1=present). Secondary Outcome Measures: • 1. […] [Time Frame: 2 hours-24 hours post-dose] • Sustained Pain Freedom as measured by a 4 point numeric rating scale (None, Mild, Moderate, Severe) • 2. The difference between rimegepant (75 mg tablet) compared to placebo by tabulating the absence of photophobia at 2 hours post-dose in the subset of subjects that reported the presence of photophobia at headache baseline. [Time Frame: 2 hours post-dose] • Photophobia • 3. To evaluate rimegepant (75 mg tablet) compared to placebo by tabulating the number of subjects that report the absence of phonophobia at 2 hours post-dose in the subset of subjects that reported the presence of phonophobia at headache baseline. [Time Frame: 2 hours post-dose] • Phonophobia • 4. To measure the difference between rimegepant (75 mg tablet) compared to placebo on Pain Relief, at 2 hours post-dose, for those that report a pain level of moderate or severe at baseline and then report a pain level of none or mild. [Time Frame: 2 hours post-dose] • Pain Relief as measured by a 4 point numeric rating scale (None, Mild, Moderate, Severe) • 5. Freedom from Nausea by tabulating the number of subjects that report the absence of nausea at 2 hours post-dose in the subset of subjects that reported the presence of nausea at headache baseline. [Time Frame: 2 hours post-dose] • Freedom from Nausea • 6. The difference between rimegepant (75 mg tablet) compared to placebo on the probability of requiring rescue medication using the number of subjects that take rescue medication within […] administration of study medication (BHV3000 or placebo). [Time Frame: up to 24 hours post-dose] • Requiring Rescue Medication • 7. […] [Time Frame: 2 hours-24 hours post-dose] • Sustained Pain Freedom • 8. […] [Time Frame: 2 hours-24 hours post-dose] • Sustained Pain Relief as measured by a 4 point numeric rating scale (None, Mild, Moderate, Severe) • 9. […] [Time Frame: 2 hours-48 hours post-dose] • Sustained Pain Relief as measured by a 4 point numeric rating scale (None, Mild, Moderate, Severe) • 10. […]

[1] = Study 301, single 75 mg tablet, listed as rimegepant

N[C@@H]1c2cccnc2[C@H](OC(=O)N2CCC(n3c(=O)[nH]c4ncccc43)CC2)CC[C@H]1c1cccc(F)c1F [Rimegepant, [(5S,6S,9R)-5-amino-6-(2,3-difluorophenyl)-6,7,8,9-tetrahydro-5H-cyclohepta[b]pyridin-9-yl] 4-(2-oxo-3H-imidazo[4,5-b]pyridin-1-yl)piperidine-1-carboxylate]
SAEs related to the study drug (Study 301): No SAE
bilirubin elevations >2 times ULN (Study 301): No bilirubin elevations
transaminase level >5 times ULN (Study 301): no subject
AE dizziness (Study 301, 4/546): 0.7%
AE nausea (Study 301, 5/546): 0.9%
Serum ALT or AST levels greater than ULN (Study 301, 11/546): 2.0%
functional disability: patients achieving normal function at 2 hours versus placebo (Study 301, P<0.0001): greater proportion
Serious AEs (SAEs) (Study 301, n=2): 0.4%
transaminase level >3 times ULN (Study 301, one subject): 0.2%
Free from MBS at 2 hours, subjects [n/N] (Study 301, single 75 mg tablet): [199/543]
Nausea-free at 2 hours (Study 301, single 75 mg tablet): 46.9%
Nausea-free at 2 hours, subjects [n/N] (Study 301, single 75 mg tablet): [149/318]
Pain relief at 2 hours (Study 301, single 75 mg tablet): 56.0%
Pain relief at 2 hours, subjects [n/N] (Study 301, single 75 mg tablet): [304/543]
Pain-free at 2 hours, subjects [n/N] (Study 301, single 75 mg tablet): [104/543]
Phonophobia-free at 2 hours (Study 301, single 75 mg tablet): 38.6%
Phonophobia-free at 2 hours, subjects [n/N] (Study 301, single 75 mg tablet): [133/345]
Photophobia-free at 2 hours (Study 301, single 75 mg tablet): 34.9%
Photophobia-free at 2 hours, subjects [n/N] (Study 301, single 75 mg tablet): [164/470]
Sustained pain relief, 2-24 hours (Study 301, single 75 mg tablet): 38.9%
Sustained pain relief, 2-24 hours, subjects [n/N] (Study 301, single 75 mg tablet): [211/543]
Freedom from MBS at 2 hours (Study 301, single 75 mg tablet): 36.6%
Pain Freedom (pain-free) at 2 hours (Study 301, single 75 mg tablet): 19.2%
Freedom from MBS at 2 hours [1]: 36.6%
Pain Freedom (pain-free) at 2 hours [1]: 19.2%
Pain relief at 2 hours [1]: 56.0%
sustained pain relief from 2 through 48 hours postdose versus placebo (Study 301, single dose, no rescue medication, P=0.0003): superiority versus placebo
sustained pain freedom from 2 through 48 hours postdose versus placebo (Study 301, single dose, no rescue medication, P=0.013): superiority versus placebo
